Where two headings read alike, the source gives them in different places.
What was measured:
[1] = test system: HepG2; assay: MTT assay, HepG2 cells; format: cell-based, human; details: for IC50: read-out: IC50 HepG2
[2] = test system: HuH7; assay: MTT assay, HuH7 cells; format: cell-based, human; details: read-out: IC50 HuH7
[3] = test system: HCC cell lines (HepG2, HuH7, and SMMC-7721); assay: MTT assay, results stated over the three HCC cell lines; format: cell-based; details: Homo sapiens, 48 h, read-out: IC50 against HCC cells (span over cell lines)
[4] = test system: SMMC-7721; assay: MTT assay, SMMC-7721 cells; format: cell-based, human; details: read-out: IC50 SMMC-7721
[5] = test system: LO2; assay: MTT assay, normal hepatocyte LO2; format: cell-based, human
[6] = Homo sapiens, L02, 48 h, read-out: IC50 LO2, normal liver cell line, MTT, 48 h
[7] = read-out: IC50 LO2, normal liver cell line, MTT, 48 h
[8] = MTT, 48 h, mean ± SD of three experiments

| Structure (SMILES) | IC50 ([1]; Homo sapiens, HepG2, 48 h) | IC50 ([2]; Homo sapiens, Huh-7, 48 h) | IC50 [3] | IC50 ([4]; Homo sapiens, SMMC-7721, 48 h) | IC50 [5, 6] | IC50 [5, 7] | IC50 [1, 8] | IC50 [2, 8] | IC50 [4, 8] | effect on the inhibition of HepG2 cell proliferation by TMHA37 ([1]; 20 μM CDIM8, 5 μM TMHA37, 48 h, MTT) |
| --- | --- | --- | --- | --- | --- | --- | --- | --- | --- | --- |
| Cc1cc(Nc2ccc(C(=O)N/N=C/c3ccsc3)cc2)c2cccc(O)c2n1 [7A, (E)-4-((8-hydroxy-2-methylquinolin-4-yl)amino)-N'-(thiophen-3-ylmethylene)benzohydrazide] | 30.8 ± 2.52 µM | 31.7 ± 3.6 µM | 30.8 to 52.8 µM | 52.8 ± 1.56 µM | – | – | – | – | – | – |
| Cc1cc(Nc2ccc(C(=O)N/N=C/c3sccc3Br)cc2)c2cccc(O)c2n1 [7B, (E)-N'-((3-bromothiophen-2-yl)methylene)-4-((8-hydroxy-2-methylquinolin-4-yl)amino)benzohydrazide] | 16.2 ± 1.53 µM | 18 ± 1.26 µM | < 30 µM | 26.1 ± 1 µM | > 90 µM | – | – | – | – | – |
| Cc1cc(Nc2ccc(C(=O)N/N=C/c3cc(Br)cs3)cc2)c2cccc(O)c2n1 [7C, (E)-N'-((4-bromothiophen-2-yl)methylene)-4-((8-hydroxy-2-methylquinolin-4-yl)amino)benzohydrazide] | 16.4 ± 0.7 µM | 21.2 ± 2.28 µM | < 30 µM | 16 ± 0.54 µM | 21 ± 1.18 µM | – | – | – | – | – |
| CSc1ccc(/C=N/NC(=O)c2ccc(Nc3cc(C)nc4c(O)cccc34)cc2)cc1 [7E, (E)-4-((8-hydroxy-2-methylquinolin-4-yl)amino)-N'-(4-(methylthio)benzylidene)benzohydrazide] | 17.7 ± 0.3 µM | 25.6 ± 1.81 µM | – | 22.94 ± 0.03 µM | > 90 µM | – | – | – | – | – |
| Cc1cc(Nc2ccc(C(=O)N/N=C/c3ccccc3Cl)cc2)c2cccc(O)c2n1 [7F, (E)-N'-(2-chlorobenzylidene)-4-((8-hydroxy-2-methylquinolin-4-yl)amino)benzohydrazide] | 13.6 ± 2.14 µM | 22.3 ± 1.88 µM | – | 17.9 ± 1.03 µM | 15 ± 2.16 µM | – | – | – | – | – |
| Cc1cc(Nc2ccc(C(=O)N/N=C/c3cccc(C(F)(F)F)c3)cc2)c2cccc(O)c2n1 [7G, (E)-4-((8-hydroxy-2-methylquinolin-4-yl)amino)-N'-(3-(trifluoromethyl)benzylidene)benzohydrazide] | 15.5 ± 1.45 µM | 6.88 ± 2.04 µM | – | 20.6 ± 2.56 µM | 19.9 ± 2.01 µM | – | – | – | – | – |
| Cc1cc(Nc2ccc(C(=O)N/N=C/c3ccc(C(F)(F)F)cc3)cc2)c2cccc(O)c2n1 [7H, (E)-4-((8-hydroxy-2-methylquinolin-4-yl)amino)-N'-(4-(trifluoromethyl)benzylidene)benzohydrazide] | 18.1 ± 0.98 µM | 23.3 ± 0.33 µM | – | 27.68 ± 0.25 µM | > 90 µM | – | – | – | – | – |
| C#Cc1ccc(/C=N/NC(=O)c2ccc(Nc3cc(C)nc4c(O)cccc34)cc2)cc1 [7I, (E)-N'-(4-ethynylbenzylidene)-4-((8-hydroxy-2-methylquinolin-4-yl)amino)benzohydrazide] | 28.3 ± 1.17 µM | 12.8 ± 0.36 µM | – | 33.9 ± 3.58 µM | – | – | – | – | – | – |
| COc1cc(/C=N/NC(=O)c2ccc(Nc3cc(C)nc4c(O)cccc34)cc2)cc(OC)c1 [7J, (E)-N’-(3,5-dimethoxybenzylidene)-4-((8-hydroxy-2-methylquinolin-4-yl)amino)benzohydrazide] | 27.5 ± 2.12 µM | 26 ± 0.54 µM | – | 37.2 ± 2.23 µM | – | – | – | – | – | – |
| COc1ccc(F)c(/C=N/NC(=O)c2ccc(Nc3cc(C)nc4c(O)cccc34)cc2)c1 [7K, (E)-N'-(2-fluoro-5-methoxybenzylidene)-4-((8-hydroxy-2-methylquinolin-4-yl)amino)benzohydrazide] | 20.1 ± 1.18 µM | 34.6 ± 2.97 µM | – | 28.2 ± 2.06 µM | – | – | – | – | – | – |
| Cc1cc(Nc2ccc(C(=O)N/N=C/c3cccc(F)c3F)cc2)c2cccc(O)c2n1 [7L, (E)-N'-(2,3-difluorobenzylidene)-4-((8-hydroxy-2-methylquinolin-4-yl)amino)benzohydrazide] | 21 ± 1.51 µM | 15.9 ± 2.8 µM | – | 25.4 ± 1.63 µM | 25 ± 3.16 µM | – | – | – | – | – |
| Cc1cc(Nc2ccc(C(=O)N/N=C/c3ccc(Br)c(F)c3)cc2)c2cccc(O)c2n1 [7M, (E)-N'-(4-bromo-3-fluorobenzylidene)-4-((8-hydroxy-2-methylquinolin-4-yl)amino)benzohydrazide] | 15.8 ± 3.68 µM | 23.8 ± 1.82 µM | 15.8 to 27.6 µM | 18.2 ± 1.94 µM | > 90 µM | – | – | – | – | – |
| Cc1cc(Nc2ccc(C(=O)N/N=C/c3ccc(F)c(Br)c3)cc2)c2cccc(O)c2n1 [7N, (E)-N'-(3-bromo-4-fluorobenzylidene)-4-((8-hydroxy-2-methylquinolin-4-yl)amino)benzohydrazide] | 27.6 ± 0.81 µM | 15.4 ± 2.09 µM | 15.8 to 27.6 µM | 21.1 ± 1.01 µM | > 90 µM | – | – | – | – | – |
| Cc1cc(Nc2ccc(C(=O)N/N=C/c3ccc(F)cc3Br)cc2)c2cccc(O)c2n1 [7O, (E)-N'-(2-bromo-4-fluorobenzylidene)-4-((8-hydroxy-2-methylquinolin-4-yl)amino)benzohydrazide] | 15.7 ± 1.31 µM | 13.7 ± 0.61 µM | – | 16.9 ± 1.97 µM | 69.2 ± 4.58 µM | – | – | – | – | – |
| Cc1cc(Nc2ccc(C(=O)N/N=C/c3cc(C(F)(F)F)ccc3F)cc2)c2cccc(O)c2n1 [7P, (E)-N'-(2-fluoro-5-(trifluoromethyl)benzylidene)-4-((8-hydroxy-2-methylquinolin-4-yl)amino)benzohydrazide] | 7.78 ± 1.33 µM | 19.3 ± 1.49 µM | 7.78 to 19.3 µM | 8.82 ± 0.41 µM | 18 ± 1.55 µM | – | – | – | – | – |
| Cc1cc(Nc2ccc(C(=O)N/N=C/c3ccc(F)c(C(F)(F)F)c3)cc2)c2cccc(O)c2n1 [7Q, (E)-N'-(4-fluoro-3-(trifluoromethyl)benzylidene)-4-((8-hydroxy-2-methylquinolin-4-yl)amino)benzohydrazide] | 12.7 ± 1.61 µM | 29.2 ± 3.24 µM | – | 21.6 ± 1.13 µM | 4.82 ± 0.67 µM | – | – | – | – | – |
| Cc1cc(Nc2ccc(C(=O)N/N=C/c3cccc(Br)n3)cc2)c2cccc(O)c2n1 [7R, (E)-N'-((6-bromopyridin-2-yl)methylene)-4-((8-hydroxy-2-methylquinolin-4-yl)amino)benzohydrazide] | 30 ± 0.92 µM | 32.2 ± 4.3 µM | 30 to 45.8 µM | 45.8 ± 0.64 µM | – | – | – | – | – | – |
| Cc1cc(Nc2ccc(C(=O)N/N=C/c3ccc4ccccc4c3)cc2)c2cccc(O)c2n1 [7S, (E)-4-((8-hydroxy-2-methylquinolin-4-yl)amino)-N'-(naphthalen-2-ylmethylene)benzohydrazide] | 15.6 ± 1.65 µM | 16.2 ± 0.66 µM | 15 to 23.9 µM | 22.3 ± 0.98 µM | > 60 µM | 66.3 ± 8.68 µM | – | – | – | – |
| COc1ccc(/C=N/NC(=O)c2ccc(Nc3cc(C)nc4c(O)cccc34)cc2)c2ccccc12 [7T, (E)-4-((8-hydroxy-2-methylquinolin-4-yl)amino)-N'-((4-methoxynaphthalen-1-yl)methylene)benzohydrazide] | 15 ± 4.75 µM | 20.9 ± 2.46 µM | 15 to 23.9 µM | 23.9 ± 2.16 µM | > 60 µM | 60.7 ± 0.98 µM | – | – | – | – |
| Cc1cc(Nc2ccc(C(=O)N/N=C/c3cc4ccccc4nc3Cl)cc2)c2cccc(O)c2n1 [7U, (E)-N'-((2-chloroquinolin-3-yl)methylene)-4-((8-hydroxy-2-methylquinolin-4-yl)amino)benzohydrazide] | 17.6 ± 1.09 µM | 30.9 ± 3.39 µM | – | 19.9 ± 0.94 µM | 18 ± 1.29 µM | – | – | – | – | – |
| Cc1cc(Nc2ccc(C(=O)N/N=C/c3csc4ccccc34)cc2)c2cccc(O)c2n1 [7V, (E)-N'-(benzo[b]thiophen-3-ylmethylene)-4-((8-hydroxy-2-methylquinolin-4-yl)amino)benzohydrazide] | 13.7 ± 2.85 µM | 20.4 ± 2.75 µM | – | 21.7 ± 1.96 µM | 3.06 ± 0.11 µM | – | – | – | – | – |
| N.N.[Cl][Pt][Cl] [CDDP, Cisplatinum, reference compound] | – | – | – | – | – | 4.23 ± 0.52 µM | 2.21 ± 0.35 µM | 3.69 ± 0.55 µM | 1.58 ± 0.08 µM | – |
| Oc1ccc(C(c2c[nH]c3ccccc23)c2c[nH]c3ccccc23)cc1 [CDIM8, reference compound] | – | – | – | – | – | – | – | – | – | significantly reversed the inhibitory effect of TMHA37 on HepG2 cell proliferation |
| CC1=C(O)C(=O)C=C2C1=CC=C1[C@@]2(C)CC[C@@]2(C)[C@@H]3C[C@](C)(C(=O)O)CC[C@]3(C)CC[C@]12C [Celastrol, reference compound] | 18.6 ± 1.01 µM | 34.9 ± 2.21 µM | – | 16 ± 3.28 µM | – | – | – | – | – | – |

Reference: paper PMC10294756 (Journal of Enzyme Inhibition and Medicinal Chemistry, 2023)
